Test results from patent publication US4356183A, “Antihypertensive 4-thiazolidinecarboxylic acids (pyridyl derivatives)” (Santen Pharmaceutical Co., Ltd., priority 1978, dated 1982).

Legend:
[1] = test system: contractile response of isolated guinea pig ileum to angiotensin I; assay: Inhibition of contractile response of isolated guinea pig ileum to angiotensin I; type: cell-based; settings: Cavia porcellus, angiotensin I 0.1 μg/ml; compound added 5 min before; 30° C.; read-out: Angiotensin I IC50 (50% inhibition of angiotensin I activity inducing the contraction of guinea pig ileum)
[2] = target: T1, angiotensin I-converting enzyme (Oryctolagus cuniculus, UniProt P12822); assay: Inhibition of angiotensin I-converting enzyme by spectrophotometry (HHL substrate); type: biochemical; settings: enzyme from rabbit lung; 5 mM HHL; pH 8.3; 37° C., 30 min
T1 construct: angiotensin I-converting enzyme extracted from rabbit lung; from tissue; host or cells: rabbit lung
T1 sequence (P12822 34-1310): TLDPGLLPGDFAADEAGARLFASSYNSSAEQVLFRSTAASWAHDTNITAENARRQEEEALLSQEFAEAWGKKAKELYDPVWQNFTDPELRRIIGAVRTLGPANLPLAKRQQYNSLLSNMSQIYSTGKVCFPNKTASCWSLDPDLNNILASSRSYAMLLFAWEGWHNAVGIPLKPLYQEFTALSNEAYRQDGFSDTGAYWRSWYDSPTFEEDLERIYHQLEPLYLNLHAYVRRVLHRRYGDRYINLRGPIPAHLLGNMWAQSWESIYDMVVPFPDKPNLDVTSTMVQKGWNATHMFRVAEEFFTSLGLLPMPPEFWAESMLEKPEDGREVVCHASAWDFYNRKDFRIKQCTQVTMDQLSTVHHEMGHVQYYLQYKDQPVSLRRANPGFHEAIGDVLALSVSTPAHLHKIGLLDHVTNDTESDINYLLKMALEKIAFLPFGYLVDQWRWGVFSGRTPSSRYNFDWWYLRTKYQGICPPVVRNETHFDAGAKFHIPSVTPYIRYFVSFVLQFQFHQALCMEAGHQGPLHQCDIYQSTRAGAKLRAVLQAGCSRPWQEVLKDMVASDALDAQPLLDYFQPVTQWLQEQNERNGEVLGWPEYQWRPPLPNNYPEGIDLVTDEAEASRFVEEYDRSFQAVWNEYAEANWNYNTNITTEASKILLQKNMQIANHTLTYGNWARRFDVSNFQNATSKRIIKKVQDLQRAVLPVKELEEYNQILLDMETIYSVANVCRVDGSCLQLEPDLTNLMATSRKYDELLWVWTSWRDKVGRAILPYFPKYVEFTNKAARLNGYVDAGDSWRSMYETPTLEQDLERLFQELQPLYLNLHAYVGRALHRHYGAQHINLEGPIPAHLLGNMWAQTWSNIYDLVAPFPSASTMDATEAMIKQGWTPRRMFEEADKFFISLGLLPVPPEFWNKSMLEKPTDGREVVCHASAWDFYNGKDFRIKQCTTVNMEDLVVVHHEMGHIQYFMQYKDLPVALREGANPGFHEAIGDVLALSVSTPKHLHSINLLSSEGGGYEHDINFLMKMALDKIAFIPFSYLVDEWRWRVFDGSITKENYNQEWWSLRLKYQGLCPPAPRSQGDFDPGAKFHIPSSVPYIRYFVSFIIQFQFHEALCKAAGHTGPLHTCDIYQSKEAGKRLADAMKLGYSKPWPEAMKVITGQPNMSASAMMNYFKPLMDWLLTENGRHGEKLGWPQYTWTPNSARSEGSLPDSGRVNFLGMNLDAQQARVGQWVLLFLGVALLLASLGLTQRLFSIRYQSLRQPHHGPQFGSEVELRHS

[3] = test system: pressor response to angiotensin I; assay: Inhibition of pressor response to angiotensin I in rats after oral administration; type: in vivo, rat (male Wistar); settings: angiotensin I 300 ng/kg i.v.; for Inhibition (%) of pressor response to angiotensin I, 5 min / Inhibition (%) of pressor response to angiotensin I, 15 min / Inhibition (%) of pressor response to angiotensin I, 25 min / Inhibition (%) of pressor response to angiotensin I, 35 min / Inhibition (%) of pressor response to angiotensin I, 45 min / Inhibition (%) of pressor response to angiotensin I, 55 min / Inhibition (%) of pressor response to angiotensin I, 65 min / Inhibition (%) of pressor response to angiotensin I, 75 min / Inhibition (%) of pressor response to angiotensin I, 85 min: dose: 3, 45, 49 1.8 mg/kg, 4, 46 1.3, 50 1.4, 76 2.0, 77 1.5; for Inhibition (%) of pressor response to angiotensin I, 95 min: dose: 45, 49 1.8 mg/kg, 4, 46 1.3, 50 1.4, 76 2.0, 77 1.5; for Inhibition (%) of pressor response to angiotensin I, 105 min / Inhibition (%) of pressor response to angiotensin I, 115 min: dose: 45, 49 1.8 mg/kg, 46 1.3, 50 1.4, 76 2.0, 77 1.5

IC50 [1] [nM]	IC50 [2] [nM]	SMILES	Inhibition (%) of pressor response to angiotensin I, 5 min [3] [%]	Inhibition (%) of pressor response to angiotensin I, 15 min [3] [%]	Inhibition (%) of pressor response to angiotensin I, 25 min [3] [%]	Inhibition (%) of pressor response to angiotensin I, 35 min [3] [%]	Inhibition (%) of pressor response to angiotensin I, 45 min [3] [%]	Inhibition (%) of pressor response to angiotensin I, 55 min [3] [%]	Inhibition (%) of pressor response to angiotensin I, 65 min [3] [%]	Inhibition (%) of pressor response to angiotensin I, 75 min [3] [%]	Inhibition (%) of pressor response to angiotensin I, 85 min [3] [%]	Inhibition (%) of pressor response to angiotensin I, 95 min [3] [%]	Inhibition (%) of pressor response to angiotensin I, 105 min [3] [%]	Inhibition (%) of pressor response to angiotensin I, 115 min [3] [%]
56	220	C[C@H](CS)C(=O)N1C(c2ccccc2O)SC[C@H]1C(=O)O (stereo partly shown) [Compound 50]	11.1	22.7	37.6	43.9	52.6	31.7	28.1	30.5	24.3	21.1	21.7	21.5
120	190	COc1ccc(C2SC[C@@H](C(=O)O)N2C(=O)[C@H](C)CS)c(O)c1 (stereo partly shown) [Compound 77]	35.0	45.0	54.2	50.8	57.2	49.2	47.8	34.8	31.7	24.2	18.7	6.7
